24 molecules from ChEMBL document CHEMBL6071179, “New LsrK Ligands as AI-2 Quorum Sensing Interfering Compounds against Biofilm Formation” (J Med Chem, 2024) can be followed below.

By ΔTm is commonly meant the change in melting temperature against a reference sample. By IC50 is commonly meant the concentration needed to halve the response being measured.

Structures are written as SMILES. Calls of active or inactive are those of the source. The calls are words filed in the database; no cut-off is given here. Where only a bound is given, the exact number is not on record here.

Assay [1] has as its system Staphylococcus aureus. The experiment in a line: Antibiofilm activity against Staphylococcus aureus BHICC at 500 ug/ml incubated for 24 hrs by crystal violet staining based microplate reader assay. The assay is classed as functional. Particulars: dose 500 µg/ml.
For assay [2], the system named is Pseudomonas aeruginosa. Nature of the assay: Antibiofilm activity against Pseudomonas aeruginosa PAO1 at 500 ug/ml incubated for […] by crystal violet staining based microplate reader assay. The class given is functional. Particulars: dose 500 µg/ml.
For assay [3], the system named is Staphylococcus aureus. Nature of the assay: Inhibition of Staphylococcus aureus bacterial growth at 500 ug/ml incubated for 20 hrs by microplate reader assay. The class given is functional, organism-based. Particulars: dose 500.0 µg/ml.
Assay [4] deals with Pseudomonas aeruginosa. Nature of the assay: Inhibition of Pseudomonas aeruginosa bacterial growth at 500 ug/ml incubated for 20 hrs by microplate reader assay. The class given is functional, organism-based. Particulars: dose 500.0 µg/ml.
The test system of assay [5] is Vibrio harveyi. Nature of the assay: Inhibition of Vibrio harveyi BB120 bacterial growth at 4 to 500 ug/ml incubated for 24 hrs by resazurin dye based microplate reader assay. Particulars: dose 4-500 µg/ml. The assay is classed as functional, organism-based.
The subject of assay [6] is Vibrio harveyi. Nature of the assay: Inhibition of Vibrio harveyi BB886 bacterial growth at 4 to 500 ug/ml incubated for 24 hrs by resazurin dye based microplate reader assay. The assay is classed as functional, organism-based. Particulars: dose 4-500 µg/ml.
Assay [7] in a line: Inhibition of Vibrio harveyi BB120 AI-2 mediated Quorum sensing system assessed as reduction in bioluminescence incubated for 8 hrs.
Assay [8] can be described thus: Inhibition of Vibrio harveyi BB170 AI-2 mediated Quorum sensing system assessed as reduction in bioluminescence incubated for 8 hrs.
Assay [9] in a line: Inhibition of Vibrio harveyi BB886 AI-1 mediated Quorum sensing system assessed as reduction in bioluminescence incubated for 8 hrs.
In assay [10] the target is T1, Autoinducer-2 kinase (Bacteria) (UniProt P77432).
T1 sequence (whole entry): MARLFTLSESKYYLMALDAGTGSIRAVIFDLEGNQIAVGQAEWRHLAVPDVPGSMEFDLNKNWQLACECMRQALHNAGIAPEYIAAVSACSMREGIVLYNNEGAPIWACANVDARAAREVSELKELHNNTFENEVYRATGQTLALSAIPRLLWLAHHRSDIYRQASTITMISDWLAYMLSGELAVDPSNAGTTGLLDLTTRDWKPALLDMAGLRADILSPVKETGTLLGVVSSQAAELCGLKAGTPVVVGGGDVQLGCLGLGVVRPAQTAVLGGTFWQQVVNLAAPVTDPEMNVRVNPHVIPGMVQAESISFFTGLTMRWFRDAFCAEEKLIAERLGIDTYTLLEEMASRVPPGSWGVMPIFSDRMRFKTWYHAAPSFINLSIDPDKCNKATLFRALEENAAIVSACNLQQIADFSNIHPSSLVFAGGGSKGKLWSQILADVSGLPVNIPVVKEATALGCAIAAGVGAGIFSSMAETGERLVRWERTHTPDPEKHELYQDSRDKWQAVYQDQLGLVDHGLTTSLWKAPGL
Nature of the assay: Binding affinity to LSRK (unknown origin) assessed as change in melting temperature at 500 ug/ml in presence of ATP by SYPRO orange staining based differential scanning fluorimetry assay. Particulars: dose 500.0 µg/ml. For orientation: Differential scanning fluorimetry follows unfolding on heating by fluorescence.

The target in assay [11] is T1, Autoinducer-2 kinase (Bacteria). The experiment in a line: Binding affinity to LSRK (unknown origin) assessed as change in melting temperature at 500 ug/ml by SYPRO orange staining based differential scanning fluorimetry assay. Particulars: dose 500.0 µg/ml.
Assay [12] shares this target. The experiment in a line: Binding affinity to LsrK (unknown origin) assessed as reduction in fluorescence intensity by intrinsic tryptophan fluorescence spectroscopy.
Assay [13] has the same target. The experiment in a line: Binding affinity to LsrK (unknown origin) assessed as decrease in ellipticity at 2 to 20 uM by Far-UV CD spectra. Particulars: dose 2-20 µM.
Assay [14] shares this target. The experiment in a line: Binding affinity to LsrK (unknown origin) by STD NMR assay.
For assay [15] the target is unchanged. Nature of the assay: Binding affinity to LsrK (unknown origin) assessed as reduction in fluorescence intensity at 1 uM by intrinsic tryptophan fluorescence spectroscopy.

Turning to `O=C(NCc1ccccc1)C(O)CO` (stereo not drawn), the MBIC50 with Staphylococcus aureus [1] amounted to 128.2 µg/mL.
`O=C(NCc1ccccc1)C1COC2(CCCCC2)OC1` displayed an MBIC50 in the assay with Pseudomonas aeruginosa [2] of 40.8 µg/mL.
In the case of `COC(=O)[C@H](C)NC(=O)[C@H](Cc1ccccc1)NC(=O)C1COC(C)(C)O1` (stereo partly drawn), the results for the MBIC50 in the assay on Staphylococcus aureus [1] and in the assay with Pseudomonas aeruginosa [2] were 152.3 µg/mL and 29.1 µg/mL, respectively. Also, the inhibition result (in the assay with Staphylococcus aureus [3]; in the assay on Pseudomonas aeruginosa [4]; in the assay with Vibrio harveyi [5]; in the assay on Vibrio harveyi [6]; in assay [9]) was “inactive” each time. In addition, the inhibition result in assay [7] and in [8] was “Active” throughout. For the same molecule, the thermal shift (ΔTm) in assay [10] is > 2 °C.
For the molecule `CCCCCCCN(CCN(CC(=O)O)CC(=O)O)CC(=O)O`, in assay [8], the IC50 amounted to 400 nM.
`CC(=O)N[C@@H](CS)C(=O)O` [ACETYLCYSTEINE] showed an MBIC50 with Pseudomonas aeruginosa [2] of 14 µg/mL.
Regarding `O=C(NCCc1ccccc1)C1COC2(CCCCC2)OC1`, the MBIC50 stood at 16.2 µg/mL in the assay with Staphylococcus aureus [1] and 6.2 µg/mL in the assay with Pseudomonas aeruginosa [2]. Besides, the inhibition entry (with Staphylococcus aureus [3]; with Pseudomonas aeruginosa [4]; in the assay with Vibrio harveyi [5]; in the assay with Vibrio harveyi [6]; in assay [9]) was “inactive” throughout. The inhibition entry in [7] and in [8] was “Active” in each case. The ΔTm in assay [11] was > 1 °C; in assay [10] it was > 2 °C. Moreover, the Activity result in assay [12] and in [13] was “Dose-Dependent Effect” throughout. Besides, the result in assay [14] was Active.
For `COC(=O)[C@H](C)NC(=O)[C@H](Cc1ccccc1)NC(=O)C1OCC2(CCCCC2)CO1`, the MBIC50 amounted to 55.9 µg/mL in the assay on Staphylococcus aureus [1] and 483 µg/mL in the assay with Pseudomonas aeruginosa [2].
In the case of `COC(=O)[C@H](Cc1ccccc1)NC(=O)C(O)CO` (stereo partly drawn), in the assay on Staphylococcus aureus [1], the MBIC50 worked out at 173 µg/mL.
With `COC(=O)[C@H](Cc1ccccc1)NC(=O)C1COC2(CCCCC2)O1` (stereo partly drawn), the MBIC50 in the assay with Staphylococcus aureus [1] is 71.1 µg/mL; in the assay with Pseudomonas aeruginosa [2], 60.5 µg/mL.
Take `O=C(N[C@@H](Cc1ccccc1)C(=O)O)C1COC2(CCCCC2)OC1`: the MBIC50 was 20.6 µg/mL in the assay on Staphylococcus aureus [1] and 50 µg/mL with Pseudomonas aeruginosa [2].
As to `O=C(N[C@@H](Cc1ccccc1)C(=O)O)C1COC2(CCCCC2)O1` (stereo partly drawn), the MBIC50 in the assay on Staphylococcus aureus [1] amounted to 61.5 µg/mL; in the assay with Pseudomonas aeruginosa [2], 46.2 µg/mL. Moreover, the inhibition entry in the assay on Staphylococcus aureus [3] and in the assay with Pseudomonas aeruginosa [4] was “inactive” each time.
Consider `COC(=O)[C@H](C)NC(=O)[C@H](Cc1ccccc1)NC(=O)[C@H]1COC(C)(C)O1`, for which the MBIC50 came to 169.7 µg/mL in the assay on Staphylococcus aureus [1] and 31.7 µg/mL with Pseudomonas aeruginosa [2]. For the same molecule, the Activity result in assay [12] was “Dose-Dependent Effect”.
Regarding `c1ccc(-c2cc(C3COC4(CCCCC4)O3)[nH]n2)cc1` (stereo not drawn), the MBIC50 with Staphylococcus aureus [1] amounted to 45.1 µg/mL; in the assay on Pseudomonas aeruginosa [2], 22.5 µg/mL. The inhibition result with Staphylococcus aureus [3] and with Pseudomonas aeruginosa [4] was “inactive” throughout.
As to `COC(=O)[C@H](Cc1ccccc1)NC(=O)C1COC2(CCCCC2)OC1`, the MBIC50 in the assay on Staphylococcus aureus [1] was 85.8 µg/mL.
Take `CC1(C)OC[C@@H](C(=O)N[C@@H](Cc2ccccc2)C(=O)O)O1`: the MBIC50 in the assay with Staphylococcus aureus [1] is 26.3 µg/mL; with Pseudomonas aeruginosa [2], 34.4 µg/mL. Further, the ΔTm in [11] was > 1 °C. The Activity entry in assay [12] and in assay [13] was “Dose-Dependent Effect” in each case. Besides, the Flu intensity in [15] was 12%.
Take `O=C(NCCc1ccccc1)C1COC2(CCCCC2)O1` (stereo not drawn): the MBIC50 in the assay with Staphylococcus aureus [1] came to 92.3 µg/mL; in the assay with Pseudomonas aeruginosa [2] it was 38.3 µg/mL.
In turn, `Cn1nc(-c2ccccc2)cc1C1COC2(CCCCC2)O1` (stereo not drawn) yielded an MBIC50 with Staphylococcus aureus [1] of 55.2 µg/mL.
As for `CC1(C)OC[C@H](C(=O)N[C@@H](Cc2ccccc2)C(=O)O)O1`, the MBIC50 in the assay on Staphylococcus aureus [1] is 25.4 µg/mL; with Pseudomonas aeruginosa [2], 30.4 µg/mL. For the same molecule, the ΔTm in [11] is > 1 °C. In addition, the Activity entry in [12] and in assay [13] was “Dose-Dependent Effect” in each case. Further, the Flu intensity in assay [15] stood at 6%.
Regarding `COC(=O)[C@H](C)NC(=O)[C@H](Cc1ccccc1)NC(=O)[C@@H]1COC(C)(C)O1`, the results for the MBIC50 in the assay on Staphylococcus aureus [1] and with Pseudomonas aeruginosa [2] were 82.2 µg/mL and 25.4 µg/mL, respectively. In addition, the ΔTm in assay [11] was > 1 °C. The Activity result in assay [12] is “Dose-Dependent Effect”.
Take `O=C(NCc1ccccc1)C1COC2(CCCCC2)O1` (stereo not drawn): the MBIC50 in the assay on Staphylococcus aureus [1] was 1913 µg/mL.
In the assay on Staphylococcus aureus [1], `CCOC(=O)N1CCC(=C2c3ccc(Cl)cc3CCc3cccnc32)CC1` [LORATADINE] yielded an MBIC50 of 23 µg/mL.
Turning to `Cn1nc(C2COC3(CCCCC3)O2)cc1-c1ccccc1` (stereo not drawn), the figures for the MBIC50 in the assay on Staphylococcus aureus [1] and with Pseudomonas aeruginosa [2] were 121.4 µg/mL and 373 µg/mL, respectively. Also, the inhibition entry with Staphylococcus aureus [3] and in the assay with Pseudomonas aeruginosa [4] was “inactive” in each case.
As for `CC1(C)OCC(C(=O)NCc2ccccc2)O1` (stereo not drawn), the MBIC50 in the assay with Pseudomonas aeruginosa [2] came out at 36.6 µg/mL.
On to `CC1(C)OCC(C(=O)N[C@@H](Cc2ccccc2)C(=O)O)O1` (stereo partly drawn), for which the values for the MBIC50 in the assay on Staphylococcus aureus [1] and in the assay on Pseudomonas aeruginosa [2] were 34.6 µg/mL and 27.7 µg/mL, respectively. For the same molecule, the inhibition result (in the assay on Staphylococcus aureus [3]; in the assay on Pseudomonas aeruginosa [4]; with Vibrio harveyi [5]; in the assay with Vibrio harveyi [6]; in assay [9]) was “inactive” each time. For the same molecule, the inhibition result in assay [7] and in [8] was “Active” each time. In [10], the shift in melting temperature (ΔTm) was > 2 °C.
